Assay results as given in PMC3152580 (Journal of the American Chemical Society, 2011).

Target: E. coli Alkaline Phosphatase (AP) (Escherichia coli, UniProt P00634)
Format: biochemical
Conditions: pH 8

Sequence of E. coli Alkaline Phosphatase (AP) (P00634 22-471): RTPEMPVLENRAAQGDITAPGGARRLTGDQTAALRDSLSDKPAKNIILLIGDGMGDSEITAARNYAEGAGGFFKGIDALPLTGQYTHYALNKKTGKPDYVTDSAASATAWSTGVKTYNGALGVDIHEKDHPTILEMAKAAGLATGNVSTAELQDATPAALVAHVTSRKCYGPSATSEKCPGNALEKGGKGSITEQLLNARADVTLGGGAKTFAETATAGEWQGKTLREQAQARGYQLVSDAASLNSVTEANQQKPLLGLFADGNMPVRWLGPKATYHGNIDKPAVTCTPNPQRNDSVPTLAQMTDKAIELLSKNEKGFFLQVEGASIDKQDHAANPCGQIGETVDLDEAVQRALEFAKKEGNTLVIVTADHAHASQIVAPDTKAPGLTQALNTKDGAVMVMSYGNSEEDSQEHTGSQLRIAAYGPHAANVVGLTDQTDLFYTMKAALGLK

Q: What does the source list for O=S(=O)(O)O [sulfate]?
A: differential binding energy between Pi and sulfate binding: at least 8.5 kcal/mol; inhibition of AP by sulfate: No significant inhibition
